Experimental data: patent publication US7211576B2, “Diaminothiazoles” (Hoffmann-La Roche Inc., priority 2004, dated 2007)

What was measured:
[1] = system: HCT116, a colorectal carcinoma cell line; assay: Tetrazolium dye (MTT) proliferation assay; format: cell-based; conditions: Homo sapiens, HCT-116; HCT116 cells, inhibition of cell proliferation
Procedure: Proliferation was evaluated by the tetrazolium dye assay according to the procedure of Denizot and Lang (Denizot, F. and Lang, R. J Immunol Methods 1986, 89, 271–277). The cell line used was HCT116, a colorectal carcinoma cell line obtained from the American Type Cell Culture Collection (ATCC; Rockville, Md.). The cells were grown in McCoy's 5A medium supplemented with 10% FCS and L-glutamine.
Cells were plated at the appropriate seeding density to give logarithmic growth over the course of the assay in a 96-well tissue culture plate. Plates were incubated overnight at 37° C. in a humidified incubator with 5% CO2. The next day, test compounds were serially diluted to four times the final concentration in the appropriate medium containing 1.2% DMSO. One-fourth final volume of each dilution was added in duplicate to the plates containing cells. The same volume of 1.2% DMSO in medium was added to a row of “control wells” such that the final concentration of DMSO in each well was 0.3%. Wells to which no cells were added served as the “blank.” Wells to which no inhibitor was added served as “no inhibitor control.” The plates were) returned to the incubator, and at set time points (determined by their growth curves) plates were analyzed as described below.
3-(4,5-dimethylthiazole-2-yl)-2,5-diphenyl-2H-tetrazolium bromide (thiazolyl blue; MTT; Sigma) was added to each well to yield a final concentration of 1 mg/ml. Plates were returned to the incubator for 2.5–3 hours at 37° C. The MTT-containing medium was removed and the resulting formazan metabolite was solubilized in 100% ethanol with shaking for 15 minutes at room temperature. Absorbance readings were taken in a microtiter plate reader (Dynatech and Molecular Devices plate readers were used interchangeably) at a wavelength of 570 nm with a 650 nm reference. Percent inhibition (% INH) is calculated by subtracting the absorbance of the blank well from all wells, then subtracting the ratio of the average absorbance of each test duplicate (SAVE) by the average of the controls (CAVE) from 1.00. The final number is then multiplied by 100 (% INH=(1.00−SAVE/CAVE)×100). The concentration at which 50% inhibition of cell proliferation is obtained (the IC50) is determined from the linear regression of a plot of the logarithm of the concentration versus percent inhibition.

[2] = target: human cyclin B-CDK1 (Homo sapiens, UniProt P06493); assay: FlashPlate kinase assay, cyclin B-CDK1; format: biochemical; conditions: Rb protein substrate, 1 μM ATP, 33P-ATP, 30 minutes room temperature
[3] = target: human cyclin E-CDK2 (Homo sapiens, UniProt P24941); assay: FlashPlate kinase assay, cyclin E-CDK2; format: biochemical; conditions: Rb protein substrate, 1 μM ATP, 33P-ATP, 30 minutes room temperature
Procedure: To determine inhibition of Cdk4, Cdk2 and Cdk1 activity, kinase assays were conducted using FlashPlate™ assays (NEN™-Life Science Products). FlashPlate assays were performed using recombinant human cyclin B-CDK1, human cyclin E-CDK2 or human cyclin D1-CDK4 complexes. GST-cyclinE (GST-cycE), CDK2, GST-cyclinB (GST-cycB), CDK1, GST-CDK4 and cyclin D1 (cycD1) cDNA clones in baculovirus vectors were provided by Dr. W. Harper at the Baylor College of Medicine, Houston, Tex. Proteins were co-expressed in High Five™ insect cells and the complex was purified on glutathione Sepharose resin (Pharmacia, Piscataway, N.J.) as previously described (Harper, J. W. et al. Cell 1993, 75, 805–816). A 6×-Histidine tagged truncated form of retinoblastoma (Rb) protein (amino acid 386–928) was used as the substrate for the cycD1-CDK4, cycB-CDK1 and the cycE-CDK2 assays (the expression plasmid was provided by Dr. Veronica Sullivan, Department of Molecular Virology, Roche Research Centre, Welwyn Garden City, United Kingdom). The Rb protein is a natural substrate for phosphorylation by CDK4, CDK2 and CDK1 (see Herwig and Strauss Eur. J. Biochem. Vol. 246 (1997) pp. 581–601 and the references cited therein).
The expression of the 62Kd protein was under the control of an IPTG inducible promoter in an M15 E. coli strain. Cells were lysed by sonication and purification was carried out by binding lysates at pH 8.0 to a Ni-chelated agarose column pretreated with 1 mM imidazole. The resin was then washed several times with incrementally decreasing pH buffers to pH 6.0, and eluted with 500 mM imidazole. Eluted protein was dialysed against 20 mM HEPES pH 7.5, 30% glycerol, 200 mM NaCl, and 1 mM DTT. Purified Rb fusion protein stocks were quantitated for protein concentration, aliquoted, and stored at −70° C.
For all three kinase assays reported herein, 96-well FlashPlates were coated with Rb protein at 10 μg/ml, using 100 μl per well. Plates were incubated at 4° C. overnight or at room temperature for 3 hours on a shaker. To control for nonspecific phosphorylation, one row of wells was coated with 100 μl/well coating buffer (20 mM HEPES, 0.2 M NaCl). Plates were then washed twice with wash buffer (0.01% Tween 20 in phosphate-buffered saline). Compounds to be tested (“test compounds”) were added to the wells at 5× final concentration. Reactions were initiated by immediate addition of 40 μl reaction mix (25 mM HEPES, 20 mM MgCl2, 0.002% Tween 20, 2 mM DTT, 1 μM ATP, 4 nM ^33P-ATP) and a sufficient amount of enzyme to give counts that were at least 10-fold above background. Plates were incubated at room temperature on a shaker for 30 minutes. Plates were washed four times with the wash buffer, sealed, and counted on the TopCount scintillation counter (Packard Instrument Co., Downers Grove, Ill.]. The percent inhibition of Rb phosphorylation, which is a measure of the inhibition of CDK activity, was determined according to the following formula:
[formula] where “test compound” refers to the average counts per minute of the test duplicates, “nonspecific” refers to the average counts per minute when no CyclinD/Cdk4, etc., was added, and “total” refers to the average counts per minute when no compound was added. The IC50 value is the concentration of test compound that reduces by 50% the protein-kinase induced incorporation of the radiolabel under the test conditions described.

[4] = target: human cyclin D1-CDK4 (Homo sapiens, UniProt P11802); assay: FlashPlate kinase assay, cyclin D1-CDK4; format: biochemical; conditions: Rb protein substrate, 1 μM ATP, 33P-ATP, 30 minutes room temperature; read-out: CDK4 IC50
Sequence of human cyclin D1-CDK4 (P11802 whole entry): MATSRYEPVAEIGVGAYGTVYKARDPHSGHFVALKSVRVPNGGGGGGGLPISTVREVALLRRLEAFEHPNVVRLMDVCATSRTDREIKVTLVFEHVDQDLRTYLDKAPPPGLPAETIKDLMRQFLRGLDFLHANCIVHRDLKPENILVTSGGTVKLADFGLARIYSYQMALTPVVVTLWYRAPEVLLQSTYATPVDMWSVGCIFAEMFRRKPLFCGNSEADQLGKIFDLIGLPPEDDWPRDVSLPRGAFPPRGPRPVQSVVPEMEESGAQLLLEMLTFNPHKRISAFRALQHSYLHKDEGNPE
Sequence of human cyclin D1-CDK4 (P24385 whole entry partner): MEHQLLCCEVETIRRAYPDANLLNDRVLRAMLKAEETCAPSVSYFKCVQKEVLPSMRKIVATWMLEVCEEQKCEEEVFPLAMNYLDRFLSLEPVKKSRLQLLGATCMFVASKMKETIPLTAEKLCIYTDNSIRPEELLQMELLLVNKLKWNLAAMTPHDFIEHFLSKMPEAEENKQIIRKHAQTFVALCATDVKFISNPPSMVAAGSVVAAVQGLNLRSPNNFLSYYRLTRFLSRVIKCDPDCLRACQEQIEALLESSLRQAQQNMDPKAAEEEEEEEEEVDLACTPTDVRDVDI

Sequence of human cyclin B-CDK1 (P06493 whole entry): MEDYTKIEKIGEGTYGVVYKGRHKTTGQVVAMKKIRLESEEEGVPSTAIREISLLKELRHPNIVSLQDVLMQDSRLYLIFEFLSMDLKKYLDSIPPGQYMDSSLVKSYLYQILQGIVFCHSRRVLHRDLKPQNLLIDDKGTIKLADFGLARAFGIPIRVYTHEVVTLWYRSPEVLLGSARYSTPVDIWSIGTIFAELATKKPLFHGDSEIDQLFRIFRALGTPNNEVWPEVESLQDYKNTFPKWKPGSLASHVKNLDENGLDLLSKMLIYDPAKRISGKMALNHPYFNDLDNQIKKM
Sequence of human cyclin B-CDK1 (P14635 whole entry partner): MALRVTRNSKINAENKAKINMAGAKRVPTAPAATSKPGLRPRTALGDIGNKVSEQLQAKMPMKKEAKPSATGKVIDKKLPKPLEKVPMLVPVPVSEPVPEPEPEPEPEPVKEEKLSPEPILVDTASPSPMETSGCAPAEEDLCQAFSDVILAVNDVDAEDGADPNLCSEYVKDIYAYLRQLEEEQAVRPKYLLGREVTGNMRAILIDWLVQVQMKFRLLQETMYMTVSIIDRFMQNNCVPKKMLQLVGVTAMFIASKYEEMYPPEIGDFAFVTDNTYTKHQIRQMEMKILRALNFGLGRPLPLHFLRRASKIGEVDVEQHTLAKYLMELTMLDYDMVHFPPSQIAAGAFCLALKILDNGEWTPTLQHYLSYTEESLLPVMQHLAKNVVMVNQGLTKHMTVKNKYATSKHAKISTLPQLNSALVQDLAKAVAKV

SMILES: Nc1nc(Nc2ccc(N3CCC(N4CCCC4)CC3)cc2)sc1C(=O)c1ccc2c(c1)OCO2 [Example 25, {4-Amino-2-[4-(4-pyrrolidin-1-yl-piperidin-1-yl)-phenylamino]-thiazol-5-yl}-benzo[1,3]dioxol-5-yl-methanone]
- IC50 [1]: 2 µM
- IC50 [2]: 0.216 µM
- IC50 [3]: 2.89 µM
- IC50 [4]: 0.017 µM

SMILES: Nc1nc(Nc2ccc(N3CCC(N4CCCC4)CC3)cc2)sc1C(=O)c1ccc2c(c1)OCCO2 [Example 26, {4-Amino-2-[4-(4-pyrrolidin-1-yl-piperidin-1-yl)-phenylamino]-thiazol-5-yl}-(2,3-dihydro-benzo[1,4]dioxin-6-yl)-methanone]
- IC50 [1]: 2.8 µM
- IC50 [2]: 1.06 µM
- IC50 [3]: 4.25 µM
- IC50 [4]: 0.005 µM

SMILES: COc1cccc(C(=O)c2sc(Nc3ccc(N4CCC(N5CCCC5)CC4)cc3)nc2N)c1 [Example 27]
- IC50 [1]: 1.85 µM
- IC50 [2]: 1.06 µM
- IC50 [3]: 3.49 µM
- IC50 [4]: 0.017 µM

SMILES: Nc1nc(Nc2ccc(N3CCC(N4CCCCC4)CC3)cc2)sc1C(=O)c1cccc(F)c1 [Example 30, [4-Amino-2-(4-[1,4′]bipiperidinyl-1′-yl-phenylamino)-thiazol-5-yl]-(3-fluoro-phenyl)-methanone]
- IC50 [1]: 0.84 µM
- IC50 [2]: 0.176 µM
- IC50 [3]: 0.545 µM
- IC50 [4]: 0.014 µM

SMILES: COc1ccc(C(=O)c2sc(Nc3ccc(N4CCC(N5CCCCC5)CC4)cc3)nc2N)cc1F [Example 31, [4-Amino-2-(4-[1,4′]bipiperidinyl-1′-yl-phenylamino)-thiazol-5-yl]-(3-fluoro-4-methoxy-phenyl)-methanone]
- IC50 [1]: 3.29 µM
- IC50 [2]: 1.72 µM
- IC50 [3]: 4.16 µM
- IC50 [4]: 0.028 µM

SMILES: Nc1nc(Nc2ccc(N3CCC(N4CCCCC4)CC3)cc2)sc1C(=O)c1ccc2c(c1)OCO2 [Example 32, [4-Amino-2-(4-[1,4′]bipiperidinyl-1′-yl-phenylamino)-thiazol-5-yl]-benzo[1,3]dioxol-5-yl-methanone]
- IC50 [1]: 6.64 µM
- IC50 [2]: 1.91 µM
- IC50 [3]: 5.74 µM
- IC50 [4]: 0.029 µM

SMILES: Nc1nc(Nc2ccc(N3CCC(N4CCCCC4)CC3)cc2)sc1C(=O)c1ccc2c(c1)OCCO2 [Example 33, [4-Amino-2-(4-[1,4′]bipiperidinyl-1′-yl-phenylamino)-thiazol-5-yl]-(2,3-dihydro-benzo[1,4]dioxin-6-yl)-methanone]
- IC50 [1]: 1.68 µM
- IC50 [2]: 0.95 µM
- IC50 [3]: 4.95 µM
- IC50 [4]: 0.009 µM

SMILES: COc1cccc(C(=O)c2sc(Nc3ccc(N4CCC(N5CCCCC5)CC4)cc3)nc2N)c1 [Example 34, [4-Amino-2-(4-[1,4′]bipiperidinyl-1′-yl-phenylamino)-thiazol-5-yl]-(3-methoxy-phenyl)-methanone]
- IC50 [1]: 0.008 µM
- IC50 [2]: 1.68 µM
- IC50 [3]: 0.952 µM
- IC50 [4]: 3.64 µM

SMILES: Nc1nc(Nc2ccc(N3CCC(N4CCCC(O)C4)CC3)cc2)sc1C(=O)c1cccc(F)c1 (stereo not shown) [Example 35, {4-Amino-2-[4-(3-hydroxy-[1,4′]bipiperidinyl-1′-yl)-phenylamino]-thiazol-5-yl}-(3-fluoro-phenyl)-methanone]
- IC50 [1]: 0.018 µM
- IC50 [2]: 0.74 µM
- IC50 [3]: 0.12 µM
- IC50 [4]: 1.09 µM

SMILES: COc1ccc(C(=O)c2sc(Nc3ccc(N4CCC(N5CCCC(O)C5)CC4)cc3)nc2N)cc1F (stereo not shown) [Example 36, {4-Amino-2-[4-(3-hydroxy-[1,4′]bipiperidinyl-1′-yl)-phenylamino]-thiazol-5-yl}-(3-fluoro-4-methoxy-phenyl)-methanone]
- IC50 [1]: 0.009 µM
- IC50 [2]: 1.73 µM
- IC50 [3]: 3 µM
- IC50 [4]: 3.63 µM

SMILES: Nc1nc(Nc2ccc(N3CCC(N4CCCC(O)C4)CC3)cc2)sc1C(=O)c1ccc2c(c1)OCO2 (stereo not shown) [Example 37, {4-Amino-2-[4-(3-hydroxy-[1,4′]bipiperidinyl-1′-yl)-phenylamino]-thiazol-5-yl}-benzo[1,3]dioxol-5-yl-methanone]
- IC50 [1]: 0.1 µM
- IC50 [2]: 1.63 µM
- IC50 [3]: 0.52 µM
- IC50 [4]: 3.52 µM

SMILES: Nc1nc(Nc2ccc(N3CCC(N4CCCC(O)C4)CC3)cc2)sc1C(=O)c1ccc(O)cc1 (stereo not shown) [Example 40, {4-Amino-2-[4-(3-hydroxy-[1,4′]bipiperidinyl-1′-yl)-phenylamino]-thiazol-5-yl}-(4-hydroxy-phenyl)-methanone]
- IC50 [1]: 9.48 µM
- IC50 [2]: 0.64 µM
- IC50 [3]: 5.11 µM
- IC50 [4]: 0.052 µM

SMILES: CN(C)C1CCN(c2ccc(Nc3nc(N)c(C(=O)c4cccc(F)c4)s3)cc2)CC1 [Example 41, {4-Amino-2-[4-(4-dimethylamino-piperidin-1-yl)-phenylamino]-thiazol-5-yl}-(3-fluoro-phenyl)-methanone]
- IC50 [1]: 1.41 µM
- IC50 [2]: 0.268 µM
- IC50 [3]: 0.888 µM
- IC50 [4]: 0.002 µM

SMILES: CN(C)C1CCN(c2ccc(Nc3nc(N)c(C(=O)c4ccc5c(c4)OCO5)s3)cc2)CC1 [Example 43, {4-Amino-2-[4-(4-dimethylamino-piperidin-1-yl)-phenylamino]-thiazol-5-yl}-benzo[1,3]dioxol-5-yl-methanone]
- IC50 [1]: 1.61 µM
- IC50 [2]: 0.5 µM
- IC50 [3]: 3.5 µM
- IC50 [4]: 0.007 µM

SMILES: CN(C)C1CCN(c2ccc(Nc3nc(N)c(C(=O)c4ccc5c(c4)OCCO5)s3)cc2)CC1 [Example 44, {4-Amino-2-[4-(4-dimethylamino-piperidin-1-yl)-phenylamino]-thiazol-5-yl}-(2,3-dihydro-benzo[1,4]dioxin-6-yl)-methanone]
- IC50 [1]: 1.72 µM
- IC50 [2]: 1.25 µM
- IC50 [3]: 5.13 µM
- IC50 [4]: 0.016 µM

SMILES: COc1cccc(C(=O)c2sc(Nc3ccc(N4CCC(N(C)C)CC4)cc3)nc2N)c1 [Example 45, {4-Amino-2-[4-(4-dimethylamino-piperidin-1-yl)-phenylamino]-thiazol-5-yl}-(3-methoxy-phenyl)-methanone]
- IC50 [1]: 2.46 µM
- IC50 [2]: 2.44 µM
- IC50 [3]: 5.16 µM
- IC50 [4]: 0.005 µM
